Measurements: patent US20130184302A1, “METHODS FOR TREATING IRRITABLE BOWEL SYNDROME (IBS) AND INFECTIONS” (priority 2011, published 2013)

What was measured:
Format in all cases: in vivo, human
[1] = tested on: patients with non-constipation IBS (non-C IBS); experiment: Adequate relief of IBS symptoms and IBS symptom of bloating (weekly SGA, daily measures), rifaximin 550 mg TID 14 days
Source text: A measure of efficacy was based on subjects' answers to the Weekly Subject Global Assessment (SGA) questions over the 4 week study duration in relation to their IBS symptoms. […] The SGA question was asked weekly as follows: “In the past 7 days, have you had adequate relief of your IBS symptom of bloating?” (Yes/No).
The primary efficacy endpoint of the study was the proportion of subjects who achieved adequate relief of IBS symptoms for at least 2 weeks during the first 4 weeks of the 10-week follow-up phase.
Two measures of efficacy were assessed.
Subjects were questioned on the relief of overall IBS symptoms and bloating. […] The analyses defined success as a “yes” response to questions regarding adequate relief.
All subpopulations in the study responded to therapy. Baseline severity was determined during screening for Abdominal Pain/Discomfort and Bloating, and the number, type (normal, hard, loose) and urgency of bowel movements. Duration of effect was assessed in a ten week follow-up period.

[2] = tested on: patients with non-constipation IBS (non-C IBS); experiment: Stool frequency, rifaximin 550 mg TID study
[3] = tested on: C. difficile infection (CDI); experiment: CDI trial: efficacy adjusting for concomitant medication usage
Source text: Table 48 sets forth the efficacy adjusting for concomitant medication usage.

[4] = tested on: subjects with d-IBS; experiment: Adequate relief of IBS symptoms and bloating (weekly yes/no questions), rifaximin BID study in d-IBS; conditions: aIBS
[5] = Age Group: <65 (N = 281), 550 mg TID
[6] = Gender: Female (N = 226), 550 mg TID
[7] = Gender: Male (N = 85), 550 mg TID
[8] = IBS Subtype: Alternating-predominant, 550 mg TID
[9] = IBS Subtype: Diarrhoea-predominant, 550 mg TID
[10] = Population: ITT (N = 315), 550 mg TID
[11] = Population: PP (N = 311), 550 mg TID
[12] = Population: PP (N = 311), weekly SGA, 550 mg TID
[13] = Race: Non-White (N = 31), 550 mg TID
[14] = Race: White (N = 280), 550 mg TID
[15] = oral rifaximin 550 mg TID 14 days vs subjects not taking rifaximin
[16] = weekly SGA, at least 2 of Weeks 3 through 6, 550 mg TID (N = 315)
[17] = weekly SGA, 550 mg TID (N = 315)
[18] = Rifaximin N = 109, Vancomycin N = 112
[19] = Rifaximin N = 117, Vancomycin N = 115

CO[C@H]1/C=C/O[C@@]2(C)Oc3c(C)c(O)c4c(O)c(c5c(nc6cc(C)ccn65)c4c3C2=O)NC(=O)/C(C)=C\C=C\[C@H](C)[C@H](O)[C@@H](C)[C@@H](O)[C@@H](C)[C@H](OC(C)=O)[C@@H]1C [Rifaximin, (2S,16Z,18E,20S,21S,22R, 23R,24R,25S,26S,27S,28E)-5,6,21,23,25 Pentahydroxy-27-methoxy-2,4,11,16,20,22,24,26-octamethyl-2,7-(epoxypentadeca-(1,11,13)trienimino) benzofuro (4,5-e) pyrido(1,2,-a) benzimidazole-1,15(2H)-dione,25-acetate]
Adequate Relief of IBS symptom of Bloating: Failure [1, 5]: 171 (60.9%)
Adequate Relief of IBS symptom of Bloating: Success [1, 5]: 110 (39.1%)
Adequate Relief of IBS symptoms: Failure [1, 5]: 171 (60.9%)
Adequate Relief of IBS symptoms: Success [1, 5]: 110 (39.1%)
Adequate Relief of IBS symptom of Bloating: Failure ([1]; Age Group: > = 65, 550 mg TID): 16 (53.3%)
Adequate Relief of IBS symptom of Bloating: Success ([1]; Age Group: > = 65, 550 mg TID): 14 (46.7%)
Adequate Relief of IBS symptoms: Failure ([1]; Age Group: > = 65, 550 mg TID): 16 (53.3%)
Adequate Relief of IBS symptoms: Success ([1]; Age Group: > = 65, 550 mg TID): 14 (46.7%)
Adequate Relief of IBS symptom of Bloating: Failure [1, 6]: 128 (56.6%)
Adequate Relief of IBS symptom of Bloating: Success [1, 6]: 98 (43.4%)
Adequate Relief of IBS symptoms: Failure [1, 6]: 130 (57.5%)
Adequate Relief of IBS symptoms: Success [1, 6]: 96 (42.5%)
Adequate Relief of IBS symptom of Bloating: Failure [1, 7]: 59 (69.4%)
Adequate Relief of IBS symptom of Bloating: Success [1, 7]: 26 (30.6%)
Adequate Relief of IBS symptoms: Failure [1, 7]: 57 (67.1%)
Adequate Relief of IBS symptoms: Success [1, 7]: 28 (32.9%)
Adequate Relief of IBS symptom of Bloating: Failure [1, 8]: 19 (55.9%)
Adequate Relief of IBS symptom of Bloating: Success [1, 8]: 15 (44.1%)
Adequate Relief of IBS symptoms: Failure [1, 8]: 21 (61.8%)
Adequate Relief of IBS symptoms: Success [1, 8]: 13 (38.2%)
Adequate Relief of IBS symptom of Bloating: Failure [1, 9]: 168 (60.6%)
Adequate Relief of IBS symptom of Bloating: Success [1, 9]: 109 (39.4%)
Adequate Relief of IBS symptoms: Failure [1, 9]: 166 (59.9%)
Adequate Relief of IBS symptoms: Success [1, 9]: 111 (40.1%)
Adequate Relief of IBS symptom of Bloating Based on Daily Measures: Failure [1, 10]: 182 (57.8%)
Adequate Relief of IBS symptom of Bloating Based on Daily Measures: Success [1, 10]: 133 (42.2%)
Adequate Relief of IBS symptoms Based on Daily Measures: Failure [1, 10]: 200 (63.5%)
Adequate Relief of IBS symptoms Based on Daily Measures: Success [1, 10]: 115 (36.5%)
Adequate Relief of IBS symptom of Bloating Based on Daily Measures: Failure [1, 11]: 180 (57.9%)
Adequate Relief of IBS symptom of Bloating Based on Daily Measures: Success [1, 11]: 131 (42.1%)
Adequate Relief of IBS symptoms Based on Daily Measures: Failure [1, 11]: 196 (63.0%)
Adequate Relief of IBS symptoms Based on Daily Measures: Success [1, 11]: 115 (37.0%)
Adequate Relief of IBS symptom of Bloating: Failure [1, 12]: 187 (60.1%)
Adequate Relief of IBS symptom of Bloating: Success [1, 12]: 124 (39.9%)
Adequate Relief of IBS symptoms: Failure [1, 12]: 187 (60.1%)
Adequate Relief of IBS symptoms: Success [1, 12]: 124 (39.9%)
Adequate Relief of IBS symptom of Bloating: Failure [1, 13]: 17 (54.8%)
Adequate Relief of IBS symptom of Bloating: Success [1, 13]: 14 (45.2%)
Adequate Relief of IBS symptoms: Failure [1, 13]: 16 (51.6%)
Adequate Relief of IBS symptoms: Success [1, 13]: 15 (48.4%)
Adequate Relief of IBS symptom of Bloating: Failure [1, 14]: 170 (60.7%)
Adequate Relief of IBS symptom of Bloating: Success [1, 14]: 110 (39.3%)
Adequate Relief of IBS symptoms: Failure [1, 14]: 171 (61.1%)
Adequate Relief of IBS symptoms: Success [1, 14]: 109 (38.9%)
Answers to weekly SGA question on adequate relief of IBS symptom of bloating [1, 15]: responded “Yes” more often
Answers to weekly SGA question on adequate relief of IBS symptoms [1, 15]: responded “Yes” more often
Adequate Relief of IBS symptom of Bloating: Success [1, 16]: 125 (39.7%)
Adequate Relief of IBS symptoms: Success [1, 16]: 125 (39.7%)
Adequate Relief of IBS symptom of Bloating: Failure [1, 17]: 190 (60.3%)
Adequate Relief of IBS symptoms: Failure [1, 17]: 190 (60.3%)
% with decrease in SF (stool frequency) ([2]; Week 1): 14.4%
% with decrease in SF (stool frequency) ([2]; Week 2): 20.6%
% with decrease in SF (stool frequency) ([2]; Week 3): 22.2%
% with decrease in SF (stool frequency) ([2]; Week 4): 21.6%
% with decrease in SF (stool frequency) ([2]; Week 5): 25.7%
% with decrease in SF (stool frequency) ([2]; Week 6): 22.9%
% with decrease in SF (stool frequency) ([2]; Week 7): 23.8%
% with decrease in SF (stool frequency) ([2]; Week 8): 24.4%
% with decrease in SF (stool frequency) ([2]; Week 9): 25.4%
% with decrease in SF (stool frequency) ([2]; Week 10): 26.7%
% with decrease in SF (stool frequency) ([2]; Week 11): 25.4%
% with decrease in SF (stool frequency) ([2]; Week 12): 27.0%
Diarrhea: No, number of subjects [3, 18]: 71
Diarrhea: No, percent of subjects [3, 18]: (65%)
Diarrhea: Yes, number of subjects [3, 18]: 38
Diarrhea: Yes, percent of subjects [3, 18]: (35%)
Clinical Success: No, number of subjects [3, 19]: 59
Clinical Success: No, percent of subjects [3, 19]: (50%)
Clinical Success: Yes, number of subjects [3, 19]: 58
Clinical Success: Yes, percent of subjects [3, 19]: (50%)
Clinical Success: Treatment Difference ([3]; Rifaximin vs Vancomycin): −10.4%
Diarrhea: Treatment Difference ([3]; Rifaximin vs Vancomycin): −8.1%
Treatment effect, Bloating [4]: 31.4%*, 31.4%
